Data as given in US20110263454A1, “Methods of Identifying Functional Characteristics of Promoters, Transcription Modifying Proteins and Transcription Modulating Agents” (Salk Institute for Biological Studies, priority 2008, published 2011).

Assays:
FGF1D promoter = experiment: FGF family promoter luciferase reporter screen by NHRs, FGF1D; assay type: cell-based, human; conditions: FIG. 43, in words
Excerpt: (§1) Screening for FGF regulation by NHRs. The methods described herein provide a straightforward, high throughput, sensitive and quantitative strategy to identify therapeutic agonists and antagonists that can predictably modulate FGF and FGFR expression for therapeutic benefit. Promoter constructs were designed and screened for all 22 members of the FGF-family for novel regulation by the NHRs. Of particular interest is the strong and specific transcriptional regulation of FGF1A, one of the alternative splice variants of FGF1, by PPARγ (FIG. 43). The FGF 1 gene is regulated by at least three (A, B and D) different promoters. Alternative splicing of these promoters to the three exons of the FGF1 gene results in identical but differentially expressed FGF1 polypeptides (FIG. 44). FGF1A is highly expressed in heart, kidney and adipose, FGF1B is highly expressed in brain and FGF1D is highly expressed in liver.

mNPY promoter = experiment: NHR-promoter luciferase screen, mNPY promoter; assay type: cell-based, mouse
Procedure, shortened: (§2)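 CV-1 cells were co-transfected with 50 ng NHR (homodimer or NHR/RXR heterodimer), 100 ng promoter-luciferase construct and 50 ng LacZ. Luciferase was normalized to LacZ and to a no-NHR/no-ligand control.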

hCAR promoter = experiment: NHR-promoter luciferase screen, hCAR promoter; assay type: cell-based, human
Procedure, shortened: as §2

FGF1A promoter = experiment: FGF family promoter luciferase reporter screen by NHRs, FGF1A; assay type: cell-based, human; conditions: FIG. 43, in words
Excerpt: as §1
FGF1A promoter analysis. To gain more insight into the regulation of the FGF1A promoter by PPARγ, the putative PPRE was localized. […] The evolutionary conservation of FGF1A was determined and found to be highly conserved in a wide range of mammals (bovine, canine, horse, chimpanzee, human, orangutan, rat, mouse, and opossum). […] In addition to a strong conservation of the PPRE in this promoter, several other highly conserved elements were detected (e.g. SP1, HMTB, EVI1 and E-box).

hTNFa promoter = experiment: NHR-promoter luciferase screen, hTNFa promoter; assay type: cell-based, human
Procedure, shortened: as §2

[1] = hCAR promoter, HR/ligand component
[2] = TNFa promoter, HR component without or with ligand

Substance: PPARg: Peroxisome proliferator activated receptor γ (NR1C3), cDNA driver
- activation of FGF1D promoter, luciferase reporter assay (FGF1D promoter): moderate activation
- Results of assays of transcription factor (+/- ligand) with mNPY (mNPY promoter; Table 6d, luciferase activity relative to control (control = 1.00)): 1.14
- Luc. act., normalized to lacZ (mNPY promoter; mNPY promoter, HR component with or without ligand): 95.6
- Normalized Luc. act., normalized to control (mNPY promoter; mNPY promoter, HR component with or without ligand, relative to control): 1.1
- luciferase activity normalized to lacZ activity and to a control, hCAR (hCAR promoter; hCAR promoter-luciferase, CV-1 cells, NHR +/- ligand, control = 1.00): 1.58
- Luc. act., normalized to lacZ (hCAR promoter; [1]): 49.8
- Normalized Luc. act., normalized to control (hCAR promoter; [1]): 1.6
- activation of FGF1A promoter, luciferase reporter assay (FGF1A promoter): strong activation
- Luc. act., normalized to lacZ (hTNFa promoter; [2]): 1345.4
- Normalized Luc. act., normalized to control (hTNFa promoter; [2]): 1.4
- hTNFa promoter reporter activity (hTNFa promoter; transcription factor +/- ligand, control = 1.00): 1.37
